Patent publication US4686103A, “Method of managing cattle breeding herds” (Iowa State University Research Foundation, Inc., priority 1985, dated 1987)
Read-outs that look alike come from different tables or passages of the source.

Tests used:
[1] = tested on: first- and second-calf beef heifers; assay: Induction of parturition with cloprostenol and relaxin or PBS im; assay type: in vivo, cattle; conditions: for Animals with placenta retained ≥24 h / Ease of calving: day 272; for Interval between treatment and calving: day 272, mean ± SE
Experimental: The effect of cloprostenol and relaxin or PBS given im on induction or parturition was determined in 16 first-calf and 25 second-calf beef heifers. The 41 heifers were given cloprostenol im plus relaxin or PBS im on day 272 of pregnancy.

[2] = tested on: first-calf crossbred beef heifers; assay: Induction of parturition with relaxin in combination with dexamethasone or cloprostenol; assay type: in vivo, cattle; conditions: for Interval between treatment and calving: mean ± SE
Source text: Crossbred beef heifers were bred by artificial insemination and assigned randomly to treatment groups on day 268 of pregnancy. Blood samples were collected daily for radioimmunoassay of relaxin, progesterone, estrone and 17β-estradiol. Daily measures were obtained of pelvic dimensions and cervical dilation during the prepartum and postpartum periods. On day 272, heifers were given relaxin alone, or in combination with a prostaglandin (e.g., cloprostenol) or a glucocorticoid (e.g., dexamethasone).
On day 272, 10 days before expected parturition, dexamethasone (20 mg) was administered intramuscularly (im) to 30 first-calf crossbred beef heifers. Relaxin (3,000 Units) was administered either at the same time or 24 h later either im or infused into the cervical os. The relaxin was dissolved in phosphate buffer saline (PBS) for im injection and in PBS plus a sterile gel for infusion in the cervical os. Controls received the dexamethasone im plus either 1 ml PBS im or 1 ml PBS-gel vehicle infused into the cervical os. There were 5 heifers assigned randomly to each treatment group.
On day 272, cloprostenol (500 μg) was administered im to 30 first-calf crossbred beef heifers. Relaxin (3,000 Units) wad administered either at the same time or 24 h later either im or infused into the cervical os. The relaxin was dissolved in PBS for injection and in PBS plus sterile gel for infusion into the cervical os. Controls received the cloprostenol im plus either 1 ml PBS im or 1 ml PBS-gel vehicle infused into the cervical os. There were 5 heifers assigned randomly to each treatment group.

[3] = tested on: estrogen-primed immature Swiss-Webster mice; conditions: unit defined by interpubic ligament formation vs WL1000 standard; cited from earlier work
primiparous beef heifers [4] = assay: Relaxin effect on pelvic area and cervical dilatation in beef heifers; assay type: in vivo, cattle; conditions: for cervical dilatation increase: within 24 h after administration
Experimental: (§1) Beginning on day 270 of gestation, the animals were assigned randomly to one of three treatment groups; gel vehicle-treated controls, Number (N)=16; single relaxin-treated heifers, N=14; and double relaxin-treated heifers, N=17. A daily blood sample (10 ml) was obtained from a jugular vein via a hypodermic needle (16 gauge, 3.8-cm length). The blood was divided equally into two culture tubes containing 0.1 ml of heparinized saline (10 U/ml), maintained on ice, and centrifuged (2,000×g; 4° C.); plasma was decanted into two culture tubes, frozen, and stored at -20° C. for radioimmunoassay of progesterone, estrone (E1), and 17β-estradiol (17β-E2. Pelvic and cervical measurements were obtained immediately after the blood collection except on the day of treatment and postcalving, when these measurements were obtained at 12-hour intervals for 60 hours. Relaxin (1 mg, 3,000 U/mg) was infused 4 cm into the cervical os by a sterile insemination pipette on day 278.
Relaxin was extracted from ovaries of pregnant pigs and purified according to procedures described previously. See Schwabe et al., Rec. Prog. Horm. Res. (1978) 34:123. […]
Dilatation of the cervix was measured intravaginally by using a specially designed stainless-steel probe. […] The tips of the rods were expanded by rotating the conical swivel to a uniform resistance against the cervical wall, then withdrawn, and the separation of the rods was measured.
The area of the pelvic canal was calculated from determination of height and width by using a pelvimeter (Lane Manufacturing, Inc., Denver, Colo.) providing internal landmarks. Pelvic height was determined by measuring the linear distance from the midpoint of the dorsal surface of the symphysis pubis to the ventral surface of the prominent junction of the third and fourth sacral segments. Pelvic widths were determined by measuring the greatest linear distance between depression points in the shaft of the ilia at right angles to the vertical measurements. […]

primiparous beef heifers [5] = assay: Relaxin-induced parturition in beef heifers, intracervical infusion on day 278; assay type: in vivo, cattle; conditions: for Day of calving: day of gestation, mean ± SE
Source text: Forty-seven crossbred beef heifers approaching their first calving were used in this study. All heifers were bred by artificial insemination at estrus (day 0); pregnancy lasts approximately 283 days. Heifers calved at an average age of 25^± 1 months (± standard error, SE). Heifers were maintained under pasture conditions during the spring, summer and fall throughout gestation. Mixed silage (6.8 kg/animal/day) supplemented the hay fed during the winter. During the month before calving, corn (2/3 kg/animal/day) and mixed silage (9.0 kg/animal/day) were fed in addition to the ad libitum supply of hay.
as §1
Relaxin was extracted from ovaries of pregnant pigs and purified according to procedures described previously. See Schwabe et al., Rec. Prog. Horm. Res. (1978) 34:123. Purified porcine relaxin (3,000 U/mg) was suspended in 1 ml of vehicle prepared by mixing 0.01 molar phosphate buffer saline (M PBS), pH 7.0, and sterile gel (1 ml volume/volume "KY-4", a surgical lubricating jelly, Johnson and Johnson, Inc., New Brunswick, N.J.). Relaxin or gel vehicle was infused by means of a sterile insemination pipette after the cervical probe was withdrawn. A gloved hand was maintained in the reproductive tract of the heifer to guide the pipette through the cervical sphincter. Relaxin or the gel vehicle then was introduced and deposited 4 cm into the cervix.

cows = conditions: cited from earlier work
[6] = first-calf heifers treated day 272
[7] = first-calf heifers treated day 272, relaxin 3,000 Units, dexamethasone 20 mg or cloprostenol 500 μg
[8] = overall: relaxin with Dex or Clo vs Dex or Clo plus PBS
[9] = relaxin twice (2 × 3,000 U, 12 h apart)

What does the source list for `O=C(O)CCC/C=C\CC1C(O)CC(O)C1/C=C/C(O)COc1cccc(Cl)c1` (stereo not shown) [PBS & Clo, cloprostenol]?
Animals with placenta retained ≥24 h ([1]; 1st & 2nd calf heifers): 93%; Ease of calving ([1]; 1st & 2nd calf heifers): 63%; Interval between treatment and calving ([1]; 1st & 2nd calf heifers): 45 ± 6 h; Animals with placenta retained ≥24 h ([1]; 1st calf heifers): 80%; Ease of calving ([1]; 1st calf heifers): 40%; Interval between treatment and calving ([1]; 1st calf heifers): 46 ± 5 h; Animals with placenta retained ≥24 h ([1]; 2nd calf heifers): 100%; Ease of calving ([1]; 2nd calf heifers): 75%; Interval between treatment and calving ([1]; 2nd calf heifers): 44 ± 7 h; Animals with placenta retained ≥24 h [2, 6]: 80%; Ease of calving [2, 6]: 40%; Interval between treatment and calving [2, 7]: 54 ± 3.4 h; Interval between treatment and calving ([2]; first-calf heifers treated day 272, relaxin 3,000 Units, dexamethasone 20 mg or cloprostenol 500 μg, listed as cloprostenol plus PBS): 54 h

What does the source list for relaxin?
relaxin potency [3]: 3000 Units/mg; pelvic area (primiparous beef heifers [4]; 12 h after treatment, all relaxin-treated heifers, P<0.05): marked increases; cervical dilatation increase (primiparous beef heifers [4]; relaxin once): 526%; cervical dilatation increase (primiparous beef heifers [4]; relaxin twice): 634%; Animals with placenta retained ≥24 h [2, 8]: 23%; Ease of calving [2, 8]: 62%; Interval between treatment and calving ([2]; overall: relaxin with Dex or Clo vs Dex or Clo plus PBS, 60 first-calf heifers): 34 ± 2.8 h; Interval between treatment and calving ([2]; overall: relaxin with Dex or Clo vs Dex or Clo plus PBS, 60 first-calf heifers, listed as relaxin): 34 h; incidence of retained placenta beyond 24 h postpartum (primiparous beef heifers [5]; all relaxin-treated heifers (once or twice)): 0 of 31; Heifers calving within 48 h after treatment, % (primiparous beef heifers [5]; relaxin once (3,000 U)): 45%; Mean interval of days between first treatment and calving (primiparous beef heifers [5]; relaxin once (3,000 U)): 2.5 days; Day of calving (primiparous beef heifers [5]; relaxin once (3,000 U) into cervical os): 280.5 ± 0.8; Heifers calving within 48 h after treatment, No. (primiparous beef heifers [5]; relaxin once (3,000 U), 14 heifers): 6; calved earlier than PBS-gel vehicle-treated heifers, average (primiparous beef heifers [5]; relaxin twice): 3.3 days; Heifers calving within 48 h after treatment, % (primiparous beef heifers [5]; [9]): 88%; Mean interval of days between first treatment and calving (primiparous beef heifers [5]; [9]): 2.0 days; Day of calving (primiparous beef heifers [5]; relaxin twice (2 × 3,000 U, 12 h apart) into cervical os): 278.6 ± 1.2; Heifers calving within 48 h after treatment, No. (primiparous beef heifers [5]; relaxin twice (2 × 3,000 U, 12 h apart), 17 heifers): 15; heifers calving within 24 h after treatment (primiparous beef heifers [5]; relaxin-treated group vs PBS-gel vehicle, P<0.001): more heifers calving; duration of gestation (primiparous beef heifers [5]; relaxin-treated heifers vs PBS-gel vehicle controls, P<0.05): reduced; duration of pregnancy (cows; 3000 U/mg, four days before expected parturition): did not significantly reduce; cervical dilation (cows; cows, a few days before expected parturition): induce cervical dilation; duration of pregnancy (cows; heifers given relaxin intracervically on three consecutive days): Some shortening of pregnancy

For `C[C@@H]1C[C@H]2[C@@H]3CCC4=CC(=O)C=C[C@]4(C)[C@@]3(F)[C@@H](O)C[C@]2(C)[C@@]1(O)C(=O)CO` [PBS + Dex, dexamethasone], which “Animals with placenta retained ≥24 h” value [2, 6] is on record?
The value was 70%.

What about the Ease of calving [2, 6] of the same compound?
Its Ease of calving is 30%.

What about the “Interval between treatment and calving” value [2, 7] of the same compound?
Its value is 53 ± 2.6 h.

And the “Interval between treatment and calving” value ([2]; first-calf heifers treated day 272, relaxin 3,000 Units, dexamethasone 20 mg or cloprostenol 500 μg, listed as dexamethasone plus PBS)?
The value was 53 h.
